Counter-ions that a name gives are not always drawn. Like-named read-outs stand apart in the source and are kept apart here. Where only a bound is given, the exact number is not on record here.

Holding throughout (type): biochemical
For assay [1], the target named is T1, recombinant human MAO-A (monoamine oxidase-A) (Homo sapiens, UniProt P21397).
T1 construct: purchased Sigma-Aldrich
T1 sequence (P21397 1-527): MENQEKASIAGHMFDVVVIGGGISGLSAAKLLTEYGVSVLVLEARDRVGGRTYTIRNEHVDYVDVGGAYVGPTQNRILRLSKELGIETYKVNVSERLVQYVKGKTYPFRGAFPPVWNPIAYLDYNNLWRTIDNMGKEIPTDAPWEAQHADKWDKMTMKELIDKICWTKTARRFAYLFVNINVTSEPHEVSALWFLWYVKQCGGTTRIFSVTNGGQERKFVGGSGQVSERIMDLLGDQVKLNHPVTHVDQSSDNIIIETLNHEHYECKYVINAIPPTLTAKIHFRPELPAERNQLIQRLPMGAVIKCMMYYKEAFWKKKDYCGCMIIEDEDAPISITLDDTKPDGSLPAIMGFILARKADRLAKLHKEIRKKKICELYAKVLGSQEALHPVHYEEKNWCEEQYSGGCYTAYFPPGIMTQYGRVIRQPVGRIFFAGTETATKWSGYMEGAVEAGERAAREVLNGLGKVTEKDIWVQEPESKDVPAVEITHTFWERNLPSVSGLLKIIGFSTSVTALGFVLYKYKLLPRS
Put plainly: Activity evaluation on recombinant human MAO-A (Amplex Red/HRP-coupled assay, 0.5 mM tyramine substrate). Conditions: read-out: Inhibitory Activity (IC50, nM) MAO-A. The gist of the method:
(§1)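 Compounds preincubated 30 min at 37 °C with enzyme in 50 mM sodium phosphate pH 7.4 (final DMSO <1%, 8-point 1:3 dilutions); reaction started with 200 uM Amplex Red, 1 U/mL HRP and substrate (MAO-A 0.5 mM tyramine, MAO-B 1 mM benzylamine, DAO 1 mM putrescine). Resorufin fluorescence (ex 544/em 590 nm) followed over 1-2 h; IC50 from four-parameter logistic fit.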

Assay [2] has as its target T2, recombinant human DAO (diamine oxidase) (Homo sapiens, UniProt P19801).
T2 construct: purchased R&D systems
T2 sequence (P19801 20-751): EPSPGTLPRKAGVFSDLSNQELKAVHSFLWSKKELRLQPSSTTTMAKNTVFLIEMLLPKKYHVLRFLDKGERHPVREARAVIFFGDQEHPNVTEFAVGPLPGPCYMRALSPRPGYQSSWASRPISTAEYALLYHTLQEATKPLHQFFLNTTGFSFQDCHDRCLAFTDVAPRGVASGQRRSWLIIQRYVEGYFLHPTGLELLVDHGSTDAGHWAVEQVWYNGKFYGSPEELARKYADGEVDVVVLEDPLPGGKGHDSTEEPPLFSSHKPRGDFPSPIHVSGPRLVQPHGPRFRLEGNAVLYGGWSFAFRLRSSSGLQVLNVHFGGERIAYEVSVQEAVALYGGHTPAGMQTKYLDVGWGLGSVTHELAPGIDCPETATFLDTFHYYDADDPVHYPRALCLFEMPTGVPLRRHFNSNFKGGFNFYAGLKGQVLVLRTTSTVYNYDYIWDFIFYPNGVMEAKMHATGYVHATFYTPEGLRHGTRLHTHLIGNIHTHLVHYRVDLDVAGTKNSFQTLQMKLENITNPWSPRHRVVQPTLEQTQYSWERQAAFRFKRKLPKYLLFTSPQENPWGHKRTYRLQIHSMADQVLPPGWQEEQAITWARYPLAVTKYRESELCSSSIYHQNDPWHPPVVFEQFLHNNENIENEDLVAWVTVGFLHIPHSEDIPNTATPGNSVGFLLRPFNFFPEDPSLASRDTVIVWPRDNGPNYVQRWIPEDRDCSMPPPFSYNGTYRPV
Put plainly: Activity evaluation on recombinant human DAO (Amplex Red/HRP-coupled assay, 1 mM putrescine substrate). Conditions: read-out: Inhibitory Activity (IC50, nM) DAO. The gist of the method: as §1

For another assay, the target named is T3, recombinant human VAP-1 (Homo sapiens, UniProt Q16853).
T3 construct: purchased R&D systems
T3 sequence (Q16853 1-763): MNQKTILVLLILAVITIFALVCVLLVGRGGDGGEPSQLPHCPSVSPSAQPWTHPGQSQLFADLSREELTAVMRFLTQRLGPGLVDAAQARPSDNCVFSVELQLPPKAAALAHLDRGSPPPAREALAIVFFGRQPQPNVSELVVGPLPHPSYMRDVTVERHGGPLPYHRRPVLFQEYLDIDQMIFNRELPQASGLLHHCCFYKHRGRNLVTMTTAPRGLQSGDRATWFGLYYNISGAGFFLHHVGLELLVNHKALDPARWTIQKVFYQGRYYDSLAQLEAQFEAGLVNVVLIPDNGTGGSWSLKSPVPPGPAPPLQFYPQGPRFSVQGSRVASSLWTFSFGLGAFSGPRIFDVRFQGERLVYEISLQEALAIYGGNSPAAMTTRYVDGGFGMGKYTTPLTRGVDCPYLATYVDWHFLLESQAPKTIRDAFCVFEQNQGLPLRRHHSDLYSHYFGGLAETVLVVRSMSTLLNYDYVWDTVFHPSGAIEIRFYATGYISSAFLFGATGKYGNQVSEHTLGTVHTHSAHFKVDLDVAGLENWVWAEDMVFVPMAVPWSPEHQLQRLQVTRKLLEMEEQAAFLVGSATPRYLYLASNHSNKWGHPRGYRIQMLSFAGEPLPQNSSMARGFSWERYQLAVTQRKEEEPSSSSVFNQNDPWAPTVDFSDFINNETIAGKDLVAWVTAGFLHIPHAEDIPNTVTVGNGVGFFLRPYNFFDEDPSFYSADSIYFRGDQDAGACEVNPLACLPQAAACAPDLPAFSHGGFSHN
The experiment in a line: Activity evaluation on recombinant human VAP-1 (Amplex Red/HRP-coupled hydrogen peroxide assay, benzylamine substrate). Conditions: read-out: Inhibitory Activity (IC50, nM) human VAP-1. The gist of the method: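 Recombinant human VAP-1 in 50 mM sodium phosphate pH 7.4 preincubated 30 min at 37 °C with compound (8-point 1:3 series, <1% DMSO), then 1 mM benzylamine, 200 uM Amplex Red, 1 U/mL HRP added. H2O2-derived resorufin fluorescence (ex 544/em 590) followed 1–2 h; IC50 from four-parameter fit of rate inhibition.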

Assay [3] deals with T4, recombinant human MAO-B (monoamine oxidase-B) (Homo sapiens, UniProt P27338).
T4 construct: purchased Sigma-Aldrich
T4 sequence (P27338 1-520): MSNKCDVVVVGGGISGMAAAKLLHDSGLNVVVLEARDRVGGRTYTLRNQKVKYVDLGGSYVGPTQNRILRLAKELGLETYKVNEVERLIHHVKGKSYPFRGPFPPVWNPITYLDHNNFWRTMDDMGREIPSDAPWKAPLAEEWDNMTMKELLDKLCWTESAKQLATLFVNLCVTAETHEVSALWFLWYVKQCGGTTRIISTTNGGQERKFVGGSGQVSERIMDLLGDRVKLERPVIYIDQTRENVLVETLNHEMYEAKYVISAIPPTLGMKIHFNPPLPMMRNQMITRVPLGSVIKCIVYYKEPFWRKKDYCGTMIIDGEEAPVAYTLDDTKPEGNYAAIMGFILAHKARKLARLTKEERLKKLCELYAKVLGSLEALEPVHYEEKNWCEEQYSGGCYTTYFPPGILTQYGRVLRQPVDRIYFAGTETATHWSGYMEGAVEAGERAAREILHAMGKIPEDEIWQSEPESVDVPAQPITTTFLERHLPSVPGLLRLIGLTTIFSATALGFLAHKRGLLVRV
Put plainly: Activity evaluation on recombinant human MAO-B (Amplex Red/HRP-coupled assay, 1 mM benzylamine substrate). Conditions: read-out: Inhibitory Activity (IC50, nM) MAO-B. The gist of the method:
as §1

Setting [4] is: recombinant human VAP-1, 30 min preincubation at 37° C., 1 mM benzylamine.
Setting [5] is: recombinant human VAP-1, benzylamine substrate.

`NCC(Cn1ncn(-c2cccc(-c3ccc(C(F)(F)F)nc3)n2)c1=O)=C(F)F` [Example 48, 2-[2-(aminomethyl)-3,3-difluoro-allyl]-4-[6-[6-(trifluoromethyl)-3-pyridyl]-2-pyridyl]-1,2,4-triazol-3-one Trifluoroacetate]: the IC50 (as a rule, the concentration that inhibits the measured activity by half) was more than 100000 nM in assay [1] (0.5 mM tyramine), 61 nM in assay [2] (1 mM putrescine), 1 nM on recombinant human VAP-1 (setting [4]) and 31000 nM in assay [3] (1 mM benzylamine).
The like results for `Cc1cc(-c2ccc(Cn3cnn(CC(CN)=C(F)F)c3=O)s2)cc2ccc(=O)[nH]c12` [Example 135, 6-[5-[[1-[2-(aminomethyl)-3,3-difluoro-allyl]-5-oxo-1,2,4-triazol-4-yl]methyl]-2-thienyl]-8-methyl-1H-quinolin-2-one Trifluoroacetate] were, in that order, more than 100000 nM, 79000 nM, 0.4 nM and more than 100000 nM.
On to `Cc1cc(C#Cc2cnc3c(c2)NCCO3)cnc1-n1cnn(CC(CN)=C(F)F)c1=O` [Example 244, 2-[2-(aminomethyl)-3,3-difluoro-allyl]-4-[5-[2-(2,3-dihydro-1H-pyrido[2,3-b][1,4]oxazin-7-yl)ethynyl]-3-methyl-2-pyridyl]-1,2,4-triazol-3-one ditrifluoroacetate], for which the concentration for half-maximal inhibition (IC50) in assay [1] (0.5 mM tyramine substrate) is more than 100000 nM; in assay [2] (1 mM putrescine substrate), 9000 nM; on recombinant human VAP-1 (setting [5]), 0.8 nM; in assay [3] (1 mM benzylamine substrate) it was 37000 nM.
Take `CN(C)c1cc(-c2cccc(-n3cnn(CC(CN)=C(F)F)c3=O)n2)ccc1F` [Example 217, 2-[2-(aminomethyl)-3,3-difluoro-allyl]-4-[6-[3-(dimethylamino)-4-fluoro-phenyl]-2-pyridyl]-1,2,4-triazol-3-one Trifluoroacetate]: the IC50 is more than 100000 nM in assay [1] (0.5 mM tyramine substrate), 1500 nM in assay [2] (1 mM putrescine substrate), 1.1 nM at recombinant human VAP-1 (setting [5]) and 13700 nM in assay [3] (1 mM benzylamine substrate).
On the same counts, the results for `Cc1cc(-c2cnn(C(F)F)c2)cnc1-n1cnn(CC(CN)=C(F)F)c1=O` [Example 251, 2-[2-(aminomethyl)-3,3-difluoro-allyl]-4-[5-[1-(difluoromethyl)pyrazol-4-yl]-3-methyl-2-pyridyl]-1,2,4-triazol-3-one Trifluoroacetate] are more than 100000 nM, 19000 nM, 1.5 nM and 18000 nM.
For `Cc1cc(-c2ccc3cn[nH]c3c2)cnc1-n1cnn(CC(CN)=C(F)F)c1=O` [Example 233, 2-[2-(aminomethyl)-3,3-difluoro-allyl]-4-[5-(1H-indazol-6-yl)-3-methyl-2-pyridyl]-1,2,4-triazol-3-one Trifluoroacetate], the IC50 is more than 100000 nM in assay [1] (0.5 mM tyramine substrate), 36000 nM in assay [2] (1 mM putrescine substrate), 0.2 nM at recombinant human VAP-1 (setting [5]) and 200 nM in assay [3] (1 mM benzylamine substrate).
For the molecule `CS(=O)(=O)c1ccc(-c2csc(Cn3cnn(CC(CN)=C(F)F)c3=O)c2)cc1` [Example 146, 2-[2-(aminomethyl)-3,3-difluoro-allyl]-4-[[4-(4-methylsulfonylphenyl)-2-thienyl]methyl]-1,2,4-triazol-3-one Trifluoroacetate], the IC50 was more than 100000 nM in assay [1] (0.5 mM tyramine), 9200 nM in assay [2] (1 mM putrescine), 1.1 nM on recombinant human VAP-1 (setting [4]) and 33000 nM in assay [3] (1 mM benzylamine).
On the same counts, the results for `NCC(Cn1ncn(Cc2ccc(C#Cc3cnc4c(c3)NCCO4)s2)c1=O)=C(F)F` [Example 166, 2-[2-(aminomethyl)-3,3-difluoro-allyl]-4-[[5-[2-(2,3-dihydro-1H-pyrido[2,3-b][1,4]oxazin-7-yl)ethynyl]-2-thienyl]methyl]-1,2,4-triazol-3-one Ditrifluoroacetate] are more than 10000 nM, more than 10000 nM, 0.9 nM and more than 10000 nM.
Turning to `CCn1cc(-c2ccc(CCn3cnn(CC(CN)=C(F)F)c3=O)s2)cn1` [Example 180, 2-[2-(aminomethyl)-3,3-difluoro-allyl]-4-[2-[5-(1-ethylpyrazol-4-yl)-2-thienyl]ethyl]-1,2,4-triazol-3-one Trifluoroacetate], the half-maximal inhibitory concentration (IC50) was more than 100000 nM in assay [1] (0.5 mM tyramine), 1900 nM in assay [2] (1 mM putrescine), 0.6 nM on recombinant human VAP-1 (setting [4]) and 61000 nM in assay [3] (1 mM benzylamine).
Take `Cc1cc(-c2ccc3c(c2)NC(=O)CO3)cnc1-n1cnn(CC(CN)=C(F)F)c1=O` [Example 221, 6-[6-[1-[2-(aminomethyl)-3,3-difluoro-allyl]-5-oxo-1,2,4-triazol-4-yl]-5-methyl-3-pyridyl]-4H-1,4-benzoxazin-3-one Trifluoroacetate]: the half-maximal inhibitory concentration (IC50) stood at 20000 nM in assay [1] (0.5 mM tyramine substrate), 2700 nM in assay [2] (1 mM putrescine substrate), 0.3 nM at recombinant human VAP-1 (setting [5]) and 9000 nM in assay [3] (1 mM benzylamine substrate).
The like results for `Cc1c(-c2cnn(C(C)C)c2)cccc1-n1cnn(CC(CN)=C(F)F)c1=O` [Example 262, 2-[2-(aminomethyl)-3,3-difluoro-allyl]-4-[3-(1-isopropylpyrazol-4-yl)-2-methyl-phenyl]-1,2,4-triazol-3-one Trifluoroacetate] were, in that order, more than 100000 nM, more than 100000 nM, 7.4 nM and more than 100000 nM.

For the origin of these results see patent publication US11168073B2, “3,3-difluoroallylamines or salts thereof and pharmaceutical compositions comprising the same” (YUHAN CORPORATION, priority 2018, dated 2021).
